This is an account of results in patent US9930887B2, “Compound for increasing amino acid content in plant, and use thereof” (Okayama Prefecture, priority 2011, dated 2018).

Where two headings read alike, the source gives them in different places.

Experiment [1] has as its system Arabidopsis. The experiment is classed as in vivo, Arabidopsis thaliana.
Experiment [2] concerns spinach. The experiment can be described thus: Free amino acid content in spinach under cultivation temperature control. The class given is in vivo, Spinacia oleracea. The conditions noted are these: 28 days. The method, then: (§1) A cultivation condition of spinach, which was a vegetable of the goosefoot family (Chenopodioideae), supplied with glutathione was examined. After spinach was seeded, sprouts germinated to a similar extent were selected, were cultivated in an incubator (light period: 14 hours/dark period: 10 hours, light intensity: about 250 μE/m^2/s), and were sampled after 28 days. As a cultivation temperature, two types of a low temperature condition LT (Low Temperature: light period 20° C./dark period 15° C.) and a high temperature condition HT (High Temperature: light period 25° C./dark period 20° C.) were set. […] Specifically, a single individual was put into each pot having about […], and 25 mL of each solution was provided to roots of each pot once a week. In the same way as Example 1, a leaf (or a terrestrial part) was measured as a sample in a cation mode and an anion mode of CE-TOFMS (capillary electrophoresis-time-of-flight mass spectrometry: Agilent CE-TOFMS system (Agilent technologies)). By comparing a detected peak with database on the basis of m/Z and a migration period, an amino acid was searched, identified, and quantified.

Experiment [3] deals with garland chrysanthemum. As to the kind of experiment: Free amino acid content in garland chrysanthemum at various glutathione concentrations. The class given is in vivo, Chrysanthemum coronarium. To be noted: 28 days. The method, then:
An effect on amino acid contents of garland chrysanthemum which was vegetable of the composite family (Compositae), to which garland chrysanthemum glutathione having various concentrations was supplied, was examined. After garland chrysanthemum was seeded, sprouts germinated similarly were selected, were cultivated in an incubator (light period: 14 hours, 20° C./dark period: 10 hours, 15° C., light intensity: about 250 μE/m^2/s), and were sampled after 28 days. As a medium, a soil formed by placing vermiculite (Asahi industrial corporation) as a lower layer, KUREHA seedling raising soil (KUREHA CORPORATION) as a middle layer, and vermiculite (Asahi industrial corporation) as an upper layer at a ratio of 2:1:1 in lamination was used.
In this experiment, only water (Cont.), 0.1 mM, 0.2 mM, 0.5 mM, 1 mM, 2 mM, and 5 mM of oxidized glutathione (GSSG) solutions were provided to plants.

Experiment [4] concerns Arabidopsis. The class given is in vivo, Arabidopsis thaliana. To be noted: 1 mM GSSG, 2 mM GSH or 3 mM NH4NO3, 25 mL per pot to roots once a week.
In experiment [5] the test system is Japanese mustard spinach. To be noted: 28 days. Here is the method: as §1, with “As” for “A cultivation condition of spinach, which was a vegetable of the goosefoot family (Chenopodioideae), supplied with glutathione was examined. After spinach was seeded, sprouts germinated to a similar extent were selected, were cultivated in an incubator (light period: 14 hours/dark period: 10 hours, light intensity: about 250 μE/m^2/s), and were sampled after 28 days. As”

The mark [6] stands for this setting: high temperature condition (light 25° C./dark 20° C.), 1 mM GSSG.
The mark [7] stands for this setting: low temperature condition (light 20° C./dark 15° C.), 2 mM GSH.

For oxidized glutathione [GSSG], in experiment [1] (in vivo), the “asparagine content in a leaf” value is on record as “largely increased” and the “serine content in a leaf” value is recorded as “remarkably increased”. Moreover, in experiment [2] (setting [6]), the “glycine content relative to control” value was no less than 5 times, the “homoserine content relative to control” value is given as no less than 5 times, the “phenylalanine content relative to control” value is given as no less than 5 times and the “tyrosine content relative to control” value is on record as no less than 5 times. Moreover, in experiment [3] (5 mM of GSSG), the “asparagine content, ratio to control = 1” value was no less than 100 times; the “glutamine content, ratio to control = 1” value was no less than 100 times; the “glycine content, ratio to control = 1” value was no less than 100 times; the “histidine content, ratio to control = 1” value was no less than 100 times. In addition, in experiment [3] (5 mM of GSSG), the “homoserine content, ratio to control = 1” value is recorded as no less than 100 times and the “total free amino acid content, ratio to control = 1” value was found to be 24.8 times. The “total free amino acid content compared with control” value in experiment [3] (GSSG 0.1 mM, 25 mL per pot once a week) was “decreased”. The “free amino acid contents compared with total free amino acid content under control condition” value in experiment [3] (GSSG 0.2 mM to 5 mM, 25 mL per pot once a week) is listed as “increased concentration-dependently”.

On to `N[C@@H](CCC(=O)N[C@@H](CS)C(=O)NCC(=O)O)C(=O)O` [GSH, reduced glutathione], for which the “total free amino acid content relative to control condition (only water)” value in experiment [4] (plants after 4 weeks from seeding) is given as “about 2.9 times”. Also, the “total free amino acid content relative to control condition (only water)” value in experiment [4] (plants after 5 weeks from seeding) is “about 2.4 times”. Further, the “asparagine content in a leaf” value in experiment [1] (effect larger in leaf before photoirradiation (L0), 1 mM GSSG, 2 mM GSH, 3 mM NH4NO3) is recorded as “largely increased”. Also, the “serine content in a leaf” value in experiment [1] (treatment combined with photoirradiation for 8 hours (L8, 100 μE/m^2/s), 1 mM GSSG, 2 mM GSH, 3 mM NH4NO3) is recorded as “remarkably increased”. Also, in experiment [5] (setting [7]), the “GABA content relative to control” value is listed as no less than 2 times, the “arginine content relative to control” value was no less than 2 times, the “asparagine content relative to control” value was no less than 2 times and the “aspartic acid content relative to control” value is on record as no less than 2 times. For the same molecule, in experiment [5] (setting [7]), the “glutamine content relative to control” value was no less than 2 times, the “isoleucine content relative to control” value was no less than 2 times and the “threonine content relative to control” value is no less than 2 times.

As to `N[C@@H](CCC(=O)N[C@@H](CS)C(=O)NCC(=O)O)C(=O)O` [glutathione], the “effect on amino acid contents relative to control = 1 (FIG. 8)” value in experiment [2] (low temperature condition (light 20° C./dark 15° C.), observed in part of amino acids) is given as “small”. For the same molecule, the “effect of increase in amino acid content relative to control = 1 (FIG. 10)” value in experiment [5] (high temperature condition (light 25° C./dark 20° C.), β-alanine, asparagine, glutamine) is listed as “observed in part of amino acids”.
